Laboratory results from US9708314B2, “Heterocyclic amide compound” (NISSAN CHEMICAL INDUSTRIES, LTD., priority 2013, dated 2017).

Assays:
Assay type in all cases: in vivo
[1] = tested on: directly sowed Oryza sativa; assay: Test Example 3: effect on crop by application to foliage (Wagner pot, water depth 0.1-0.5 cm); conditions: Nineteenth Table; application to foliage; application herbicide amount 320 g/ha
Procedure, shortened: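 Grading uses six bands of herbicidal ratio, from 0 (≤5%, almost no effect) to 5 (≥90%, almost completely withered). Treatment was a stem-and-leaf spray of diluted emulsion at a fixed g/ha on 14-day-old plants; evaluation after three weeks.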

Galium spurium = assay: Test Example 4: herbicidal effect by application to foliage (diluvial soil, plastic box); conditions: 320 g/ha; for Q (Galium spurium) herbicidal effect grade: foliage application; for herbicidal effect, Q (Galium spurium): application to foliage
Procedure, shortened: (§1)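 Plants were grown in sterilized diluvial soil in a greenhouse at 25-30° C for 14 days, then sprayed on stems and leaves with water-diluted emulsion formulation at set rates in g/ha. Weed control and crop injury were scored 3 weeks after treatment on a 0-5 herbicidal-ratio scale, from 0 (≤5%) to 5 (≥90%).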

Apera spica-venti. = assay: as above; conditions: 320 g/ha; for L (Apera spica-venti.) herbicidal effect grade: foliage application; for herbicidal effect, L (Apera spica-venti.): application to foliage
Procedure, shortened: as §1

Veronica persica = assay: as above; conditions: 320 g/ha; for R (Veronica persica) herbicidal effect grade: foliage application; for herbicidal effect, R (Veronica persica): application to foliage
Procedure, shortened: as §1

Abutilon theophrasti = assay: as above; conditions: 320 g/ha; for M (Abutilon theophrasti) herbicidal effect grade: foliage application; for herbicidal effect, M (Abutilon theophrasti): application to foliage
Procedure, shortened: as §1

Avena fatua = assay: as above; conditions: 320 g/ha; for I (Avena fatua) herbicidal effect grade: foliage application; for herbicidal effect, I (Avena fatua): application to foliage
Procedure, shortened: as §1

Chenopodium album = assay: as above; conditions: 320 g/ha; for O (Chenopodium album) herbicidal effect grade: foliage application; for herbicidal effect, O (Chenopodium album): application to foliage
Procedure, shortened: as §1

[2] = tested on: Echinochloa crus-galli var. crus-galli; assay: as above; conditions: 320 g/ha; for H (Echinochloa crus-galli var. crus-galli) herbicidal effect grade: foliage application; for herbicidal effect, H (Echinochloa crus-galli var. crus-galli): application to foliage
Procedure, shortened: as §1

[3] = tested on: transplanted Oryza sativa; assay: Test Example 1: effect on crop, application before weed generation in submerged conditions; conditions: Application herbicide amount 320 g/ha; Seventeenth Table
Procedure, shortened: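 Pre-emergence application to water surface of submerged pots (4 cm depth, alluvial soil) on sowing day, with 2.5-leaf rice transplanted; emulsion diluted to g/ha rates. Grown in greenhouse at 25–30 °C; 0–5 herbicidal/crop-effect score after three weeks.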

SMILES	b (effect on crop grade) [1]	Q (Galium spurium) herbicidal effect grade (Galium spurium)	L (Apera spica-venti.) herbicidal effect grade (Apera spica-venti.)	R (Veronica persica) herbicidal effect grade (Veronica persica)	M (Abutilon theophrasti) herbicidal effect grade (Abutilon theophrasti)	I (Avena fatua) herbicidal effect grade (Avena fatua)	O (Chenopodium album) herbicidal effect grade (Chenopodium album)	H (Echinochloa crus-galli var. crus-galli) herbicidal effect grade [2]	a: transplanted Oryza sativa (effect on crop grade) [3]	herbicidal effect, Q (Galium spurium) (Galium spurium)	herbicidal effect, L (Apera spica-venti.) (Apera spica-venti.)	herbicidal effect, R (Veronica persica) (Veronica persica)	herbicidal effect, M (Abutilon theophrasti) (Abutilon theophrasti)	herbicidal effect, I (Avena fatua) (Avena fatua)	herbicidal effect, O (Chenopodium album) (Chenopodium album)	herbicidal effect, H (Echinochloa crus-galli var. crus-galli) [2]
CCC(C)Sc1nnc2c(C(=O)Nc3nnnn3C)ccc(C(F)(F)F)n12 (stereo not drawn) [2-072]	1 (Herbicidal ratio of 5% or more and less than 20%)	3 (Herbicidal ratio of 40% or more and less than 70%)	3 (Herbicidal ratio of 40% or more and less than 70%)	5 (Herbicidal ratio of 90% or more (almost completely withered))	5 (Herbicidal ratio of 90% or more (almost completely withered))	1 (Herbicidal ratio of 5% or more and less than 20%)	5 (Herbicidal ratio of 90% or more (almost completely withered))	5 (Herbicidal ratio of 90% or more (almost completely withered))	3 (Herbicidal ratio of 40% or more and less than 70%)							
CC(C)c1nnc2c(C(=O)Nc3nnnn3-c3ccccc3)ccc(C(F)(F)F)n12 [2-073]	2 (Herbicidal ratio of 20% or more and less than 40%)	0 (Herbicidal ratio of 5% or less (almost no effect))	0 (Herbicidal ratio of 5% or less (almost no effect))	2 (Herbicidal ratio of 20% or more and less than 40%)	3 (Herbicidal ratio of 40% or more and less than 70%)	1 (Herbicidal ratio of 5% or more and less than 20%)	5 (Herbicidal ratio of 90% or more (almost completely withered))	4 (Herbicidal ratio of 70% or more and less than 90%)	2 (Herbicidal ratio of 20% or more and less than 40%)							
COCCNc1nnc2c(C(=O)Nc3nnnn3C)ccc(C(F)(F)F)n12 [2-074]	5 (Herbicidal ratio of 90% or more (almost completely withered))	3 (Herbicidal ratio of 40% or more and less than 70%)	3 (Herbicidal ratio of 40% or more and less than 70%)	5 (Herbicidal ratio of 90% or more (almost completely withered))	4 (Herbicidal ratio of 70% or more and less than 90%)	4 (Herbicidal ratio of 70% or more and less than 90%)	5 (Herbicidal ratio of 90% or more (almost completely withered))	5 (Herbicidal ratio of 90% or more (almost completely withered))	3 (Herbicidal ratio of 40% or more and less than 70%)							
Cn1nnnc1NC(=O)c1ccc(C(F)(F)F)n2c(N3CCOCC3)nnc12 [2-075]	5 (Herbicidal ratio of 90% or more (almost completely withered))								5 (Herbicidal ratio of 90% or more (almost completely withered))	4 (Herbicidal ratio of 70% or more and less than 90%)	4 (Herbicidal ratio of 70% or more and less than 90%)	5 (Herbicidal ratio of 90% or more (almost completely withered))	5 (Herbicidal ratio of 90% or more (almost completely withered))	5 (Herbicidal ratio of 90% or more (almost completely withered))	5 (Herbicidal ratio of 90% or more (almost completely withered))	5 (Herbicidal ratio of 90% or more (almost completely withered))
Cn1nnnc1NC(=O)c1ccc(C(F)(F)F)n2c(SCc3ccccc3)nnc12 [2-076]	1 (Herbicidal ratio of 5% or more and less than 20%)								2 (Herbicidal ratio of 20% or more and less than 40%)	3 (Herbicidal ratio of 40% or more and less than 70%)	2 (Herbicidal ratio of 20% or more and less than 40%)	5 (Herbicidal ratio of 90% or more (almost completely withered))	4 (Herbicidal ratio of 70% or more and less than 90%)	1 (Herbicidal ratio of 5% or more and less than 20%)	5 (Herbicidal ratio of 90% or more (almost completely withered))	5 (Herbicidal ratio of 90% or more (almost completely withered))
COc1ccc(CSc2nnc3c(C(=O)Nc4nnnn4C)ccc(C(F)(F)F)n23)cc1 [2-077]	0 (Herbicidal ratio of 5% or less (almost no effect))								1 (Herbicidal ratio of 5% or more and less than 20%)	3 (Herbicidal ratio of 40% or more and less than 70%)	0 (Herbicidal ratio of 5% or less (almost no effect))	3 (Herbicidal ratio of 40% or more and less than 70%)	4 (Herbicidal ratio of 70% or more and less than 90%)	0 (Herbicidal ratio of 5% or less (almost no effect))	5 (Herbicidal ratio of 90% or more (almost completely withered))	4 (Herbicidal ratio of 70% or more and less than 90%)
Cn1nnnc1NC(=O)c1ccc(C(F)(F)F)n2c(N3CCSCC3)nnc12 [2-078]	4 (Herbicidal ratio of 70% or more and less than 90%)								4 (Herbicidal ratio of 70% or more and less than 90%)	4 (Herbicidal ratio of 70% or more and less than 90%)	5 (Herbicidal ratio of 90% or more (almost completely withered))	5 (Herbicidal ratio of 90% or more (almost completely withered))	5 (Herbicidal ratio of 90% or more (almost completely withered))	3 (Herbicidal ratio of 40% or more and less than 70%)	5 (Herbicidal ratio of 90% or more (almost completely withered))	5 (Herbicidal ratio of 90% or more (almost completely withered))
COCCN(C)c1nnc2c(C(=O)Nc3nnnn3C)ccc(C(F)(F)F)n12 [2-079]	5 (Herbicidal ratio of 90% or more (almost completely withered))								4 (Herbicidal ratio of 70% or more and less than 90%)	4 (Herbicidal ratio of 70% or more and less than 90%)	5 (Herbicidal ratio of 90% or more (almost completely withered))	5 (Herbicidal ratio of 90% or more (almost completely withered))	5 (Herbicidal ratio of 90% or more (almost completely withered))	3 (Herbicidal ratio of 40% or more and less than 70%)	5 (Herbicidal ratio of 90% or more (almost completely withered))	5 (Herbicidal ratio of 90% or more (almost completely withered))
CSCCNc1nnc2c(C(=O)Nc3nnnn3C)ccc(C(F)(F)F)n12 [2-080]	3 (Herbicidal ratio of 40% or more and less than 70%)								2 (Herbicidal ratio of 20% or more and less than 40%)	4 (Herbicidal ratio of 70% or more and less than 90%)	3 (Herbicidal ratio of 40% or more and less than 70%)	5 (Herbicidal ratio of 90% or more (almost completely withered))	5 (Herbicidal ratio of 90% or more (almost completely withered))	1 (Herbicidal ratio of 5% or more and less than 20%)	5 (Herbicidal ratio of 90% or more (almost completely withered))	5 (Herbicidal ratio of 90% or more (almost completely withered))
Cn1nnnc1NC(=O)c1ccc(C(F)(F)F)n2c(NCC(F)(F)F)nnc12 [2-081]	4 (Herbicidal ratio of 70% or more and less than 90%)								3 (Herbicidal ratio of 40% or more and less than 70%)	3 (Herbicidal ratio of 40% or more and less than 70%)	1 (Herbicidal ratio of 5% or more and less than 20%)	4 (Herbicidal ratio of 70% or more and less than 90%)	4 (Herbicidal ratio of 70% or more and less than 90%)	3 (Herbicidal ratio of 40% or more and less than 70%)	5 (Herbicidal ratio of 90% or more (almost completely withered))	5 (Herbicidal ratio of 90% or more (almost completely withered))
